# Measured values as given in PMC7155171, “Probing the Open Global Health Chemical Diversity Library for Multistage-Active Starting Points for Next-Generation Antimalarials” (ACS Infectious Diseases, 2020).
# Like-named read-outs stand apart in the source and are kept apart here.
# Assays:
# [1] = tested on: HepG2-A16-CD81 hepatocytes; experiment: cells; design: Uninfected hepatocyte viability, CellTiter-Glo luminescence; conditions: sheet CDD Export 1;, cytotoxicity primary screen, read-out: Table S5. Liver stage reconfirmation data / HepG2 Cytotoxicity primary screen (2uM): % Inhibition
# Protocol: For the screen, 5 μL of HepG2-A16-CD81 hepatocytes containing 3 × 10^3 cells was seeded into 1536-well plates, which had been prespotted with 10 nL of library compound (2 μM final assay concentration (Figure 1)) and incubated overnight. For PbLuc infected plates, approximately 750 purified sporozoites in 5 μL of screening media were added to each well and incubated for 48 h before measuring luciferase activity. Compounds were tested for toxicity in parallel (see Methods) by measuring uninfected hepatocyte viability using CellTiter-Glo. […] This hit rate was slightly lower than expected for an agnostic library, which prompted us to rescreen the entire library at 10 μM. The PbLuc and cytotoxicity assay plates for this second replicate would be stamped in-house with 50 nL of library compound per well, using the same compound plates as the sexual stage screen described below. All the assay parameters were kept similar, except the change in concentration and shortening the time the compounds spent in each well prior to infection. […] All potential false positive effectors from the CellTiter-Glo assay were filtered from subsequent studies (Table S1). Naturally, there were more primary hits from the 10 μM than the 2 μM screen due to the higher testing concentration. For reconfirmation, we sourced all the hits that inhibited PbLuc at >70% and mean HepG2 at <50% in the 2 μM screen or PbLuc at >60% in both 2 and 10 μM screens and mean HepG2 at <50%. The resulting compounds were acquired as DMSO stocks and retested in the dose response (50–2.82 × 10^–4 μM or 25–141.13 × 10^–6 μM) against PbLuc and uninfected hepatocytes (Table S5). […] The majority of these compounds were weak inhibitors, although 18 submicromolar hits were found (Table S5).
# [2] = tested on: P. falciparum (NF54) stage V gametocytes; experiment: Stage V gametocyte viability assay (MitoTracker Red CMXRos high content imaging); type: cell-based, Plasmodium falciparum; conditions: Plasmodium falciparum, NF54, 72 h; for inhibition at 2 µM: read-out: Stg V Gam primary screen: Inhibition % (2uM) (n=2)
# [3] = tested on: P. falciparum Dd2; experiment: SYBR green I asexual blood stage proliferation assay (96 h); type: cell-based, Plasmodium falciparum; conditions: Plasmodium falciparum, DD2, 11-pt dose response, 96hr
# [4] = tested on: P. falciparum Dd2 (PfLuc) line expressing firefly luciferase, asexual blood stage; experiment: microbe, parasite or virus in culture; type: cell-based, Plasmodium falciparum; conditions: Plasmodium falciparum
# [5] = read-out: Stg V Gam dose response IC50 (µM) (n=3), 10-point dose response, n=3, 72 h
# [6] = Sybr Green I, read-out: CDD P. falciparum Sybr Green I ABS 11-pt Reconfirmation Dose Response (96hr): IC50
# [7] = DD2, read-out: CDD P. falciparum Luciferase ABS 11-pt Reconfirmation Dose Response (48hr): IC50 (μM), 11-pt dose response, 48hr
# [8] = DD2, 8-pt dose response, 96hr, read-out: CDD P. falciparum Luciferase ABS 8-pt Reconfirmation Dose Response (96hr): IC50
# [9] = DD2, 11-pt dose response, 48hr, read-out: CDD P. falciparum Luciferase ABS 11-pt Reconfirmation Dose Response (48hr): Maximum inhibition (%)
# [10] = DD2, 11-pt dose response, 96hr, read-out: CDD P. falciparum Luciferase ABS 11-pt Reconfirmation Dose Response (96hr): IC50
# [11] = DD2, 11-pt dose response, 96hr, read-out: CDD P. falciparum Luciferase ABS 11-pt Reconfirmation Dose Response (96hr): Maximum inhibition (%)
# [12] = DD2, 8-pt dose response, 96hr, read-out: P. falciparum Luciferase ABS 8-pt Reconfirmation Dose Response (96hr): IC50
# [13] = DD2, 8-pt dose response, 96hr, read-out: P. falciparum Luciferase ABS 8-pt Reconfirmation Dose Response (96hr): Maximum inhibition (%)
# [14] = Sybr Green I, read-out: CDD P. falciparum Sybr Green I ABS 11-pt Reconfirmation Dose Response (96hr): Maximum inhibition (%)
# [15] = DD2, 8-pt dose response, 96hr, read-out: CDD P. falciparum Luciferase ABS 8-pt Reconfirmation Dose Response (96hr): Maximum inhibition (%)
smiles,measurement,setting,value
O=S(=O)(c1ccc(Cl)s1)N1CCN(Cc2nc(-c3ccco3)cs2)CC1 [DDD01027755],inhibition at 2 µM,[1],12.1%
CC(C)(C)NC(=O)N1CCC(Oc2ccc(C(F)(F)F)cn2)CC1 [DDD01028321],inhibition at 2 µM,[1],-4.73%
COc1cccc(CN2CCc3nc(C(=O)NCC(C)C)sc3CC2)c1 [DDD01030710],inhibition at 2 µM,[1],-10.2%
"COCCCNC1N=C(n2nc(C)cc2C)Nc2sc3c(c21)CCCC3 (stereo not shown) [DDD01037467, COCCCNC1N=C(NC2=C1C1=C(CCCC1)S2)N1N=C(C)C=C1C]",IC50,"[2]; read-out: GAM V IC50, stage V gametocytes, 72 h",0.34 µM
same,IC50,[2]; [5],0.344 µM
same,inhibition at 2 µM,[1],2.66%
CC(=O)Nc1ncc(S(=O)(=O)Nc2ccc3c(c2)OCCO3)s1 [DDD01037671],inhibition at 2 µM,[1],-2.36%
Cn1cncc1CN1CCCC1c1cncc(Oc2ccc(Cl)cc2)n1 (stereo not shown) [DDD01059295],inhibition at 2 µM,[1],0.825%
Cc1ncc(CN2CCOC(c3ccc(-c4ccccc4F)cn3)C2)s1 (stereo not shown) [DDD01059493],inhibition at 2 µM,[1],-6.23%
Cc1cc(-c2cnc(NCc3cccnc3)nc2C(C)(C)C)on1 [DDD01061148],inhibition at 2 µM,[1],-8.43%
COC1CCN(c2ccc(NC(=O)C3CC3)cc2C(F)(F)F)CC1 [DDD01061774],inhibition at 2 µM,[1],12.4%
N#Cc1c(Cl)nsc1NCc1cccnc1OCC(F)(F)F [DDD01067853],inhibition at 2 µM,[1],4.29%
CCNc1ccnc(CN2CCCC2C(=O)Nc2nccs2)c1 (stereo not shown) [DDD01068941],IC50,[3]; [6],1650 nM
same,IC50,[4]; [7],0.73 µM
same,IC50,[4]; [8],0.48 µM
same,Emax,[4]; [9],92.3%
same,IC50,[4]; [10],0.407 µM
same,Emax,[4]; [11],99.6%
same,inhibition at 2 µM,[1],1.3%
"Cc1cn2c(n1)C(CNCC1=Cc3ccccc3OC1)CCC2 (stereo not shown) [DDD01073292, CC1=CN2CCCC(CNCC3=CC4=CC=CC=C4OC3)C2=N1]",IC50,[3]; read-out: P. falciparum Sybr Green I ABS 11-pt Reconfirmation Dose Response (96hr): IC50,2320 nM
same,Emax,[3]; read-out: P. falciparum Sybr Green I ABS 11-pt Reconfirmation Dose Response (96hr): Maximum inhibition (%),83.8%
same,IC50,"[4]; DD2, read-out: P. falciparum Luciferase ABS 11-pt Reconfirmation Dose Response (48hr): IC50, 11-pt dose response, 48hr",4.19 µM
same,IC50,[4]; [12],1.65 µM
same,Emax,[4]; [13],93%
same,IC50,"[4]; DD2, 11-pt dose response, 96hr, read-out: P. falciparum Luciferase ABS 11-pt Reconfirmation Dose Response (96hr): IC50",1.84 µM
same,Emax,"[4]; DD2, 11-pt dose response, 96hr, read-out: P. falciparum Luciferase ABS 11-pt Reconfirmation Dose Response (96hr): Maximum inhibition (%)",99.3%
same,IC50,[2]; [5],1.31 µM
same,inhibition at 2 µM,[2],66%
same,inhibition at 2 µM,[1],-0.92%
COc1cccc(CNc2cc(C)nc(-c3ccncc3)n2)c1OC [DDD01073393],IC50,[3]; [6],589 nM
same,Emax,[3]; [14],75.8%
same,IC50,[4]; [7],4.09 µM
same,IC50,[4]; [8],0.56 µM
same,Emax,[4]; [15],94.5%
same,Emax,[4]; [9],80%
same,IC50,[4]; [10],0.0383 µM
same,Emax,[4]; [11],98.2%
same,inhibition at 2 µM,[1],-4.44%
COC(=O)c1sc(NCc2ccc(N3CCC(O)CC3)c(F)c2)nc1Cl [DDD01073922],inhibition at 2 µM,[1],5.85%
Cc1nc(C(=O)NC2CCN(CCOc3ccc(Br)cc3)CC2)cs1 [DDD01079205],inhibition at 2 µM,[1],17.6%
N#Cc1c(Cl)nsc1NCC1(c2ccccc2)CCC1 [DDD01079347],inhibition at 2 µM,[1],12%
O=C(CN1CCCC(c2ccn[nH]2)C1)Nc1nc2c(s1)CCCC2 (stereo not shown) [DDD01079490],IC50,[3]; [6],810 nM
same,Emax,[3]; [14],69.6%
same,IC50,[4]; [7],0.452 µM
same,IC50,[4]; [8],0.28 µM
same,Emax,[4]; [15],89.3%
same,Emax,[4]; [9],82.4%
same,IC50,[4]; [10],0.266 µM
same,Emax,[4]; [11],97%
same,inhibition at 2 µM,[1],7.13%
CCc1ccc(-c2ncc3c(n2)N(C)CCN(CCN(C)C)C3=O)cc1 [DDD01235938],inhibition at 2 µM,[1],4.38%
Cc1ccc(Sc2ccc(CN3CCC4(CCCNC4=O)C3)o2)cc1 (stereo not shown) [DDD01244322],inhibition at 2 µM,[1],-4.2%
"CC1(c2ccccc2)CCCN(Cc2cncn2C2CCCC2)C1 (stereo not shown) [DDD01246491, CC1(CCCN(CC2=CN=CN2C2CCCC2)C1)C1=CC=CC=C1]",IC50,[2]; [5],2.65 µM
same,inhibition at 2 µM,[2],55.4%
same,inhibition at 2 µM,[1],-6.73%
Clc1ccccc1-c1cc(CNc2ncnc3c2CCNCC3)no1 [DDD01247009],inhibition at 2 µM,[1],-1.07%
Fc1ccc(N2CCCN(c3ccc(Cn4ccnc4)cn3)CC2)cc1 [DDD01247581],inhibition at 2 µM,[1],3.83%
COc1ccc(-c2cc(CNc3ncnc4c3CCNCC4)no2)cc1 [DDD01252258],inhibition at 2 µM,[1],4.02%
CC(Nc1ncnc2c1CCNC2)c1ccc2c(c1)CCCC2 (stereo not shown) [DDD01252547],inhibition at 2 µM,[1],0.573%
Cc1csc2ncnc(N3CCC(Cn4cc(C(C)(C)N)nn4)CC3)c12 [DDD01257281],inhibition at 2 µM,[1],4.6%
Nc1nc(CCC(=O)N2CCOC(CC3CCCCC3)C2)cs1 (stereo not shown) [DDD01258215],inhibition at 2 µM,[1],-10.6%
CC(=O)c1ccc(N2CCC(CO)(CCOc3ccccc3)CC2)nc1 [DDD01258288],inhibition at 2 µM,[1],17.5%
Cc1nc(N2CC[C@@H](NC(=O)c3cnccn3)[C@H](O)C2)c2ccsc2n1 [DDD01258299],inhibition at 2 µM,[1],-14.6%
COc1cc(CNCc2ccnc(N3CCCCC3)c2)cc(OC)c1 [DDD01297270],inhibition at 2 µM,[1],-2.79%
CCc1cccc(N2CCC(NC(=O)c3ccco3)CC2)c1 [DDD01299802],inhibition at 2 µM,[1],4.14%
COc1cccc(CN2CCN(c3ccc4nncn4n3)C(C)C2)c1 (stereo not shown) [DDD01301691],inhibition at 2 µM,[1],-7.2%
COc1c(C)cnc(CN2CCC(N(C)C(C)C(N)=O)CC2)c1C (stereo not shown) [DDD01301801],IC50,[4]; [12],1.63 µM
same,Emax,[4]; [13],76.5%
same,inhibition at 2 µM,[1],1.63%
Cc1noc(NC(=O)c2ccc(Br)s2)n1 [DDD01302055],inhibition at 2 µM,[1],5.11%
Cn1cc(NS(=O)(=O)c2ccc(OC(F)(F)F)cc2)ccc1=O [DDD01303273],inhibition at 2 µM,[1],-4.65%
CC(C)N(CC(N)=O)Cc1csc(COc2ccc(F)cc2)n1 [DDD01303358],inhibition at 2 µM,[1],6.02%
Cc1ccoc1C(=O)NC1CCN(Cc2csc3c(F)cccc23)CC1 [DDD01304087],inhibition at 2 µM,[1],-2.96%
